This passage reports Tmax and solubility results from patent US11234984B2, “Solid dispersion” (Shizuoka Prefectural University Corporation, priority 2017, dated 2022).

The nature of series [1]: Test Example 2. Absorbability of the solid dispersion containing the compound A in rats. The format is in vivo. As to conditions: male, Crl:CD (SD), rat, plasma, po, 30 mg/kg, single dose 30 mg/kg as compound A, mean ± SD n=3. The method, then: A single dose of 10 mg/kg or 30 mg/kg, as the compound A, of the solid dispersions of Example 2 and Comparative Example 10, and the sample of Comparative Example 11 suspended in a 1% carboxymethylcellulose aqueous solution was orally administered to fasted male rats (8 weeks old, Crl:CD (SD), Japan Charles River Laboratories). A crystalline form of the compound A was used as a control (Comparative Example 12). A collection time was 0.5, 1, 2, 4, 8, and 24 hours after administration, and about 300 μL of blood was collected at each time point from vena caudalis (n=3). The obtained blood was centrifuged at 1500×g, 4° C. for 15 minutes to obtain a plasma. The concentration of the compound A in the plasma was measured by HPLC (Shiseido and Hitachi High-Technologies Corporation). A time to reach the highest concentration in the plasma (Tmax), the highest concentration in the plasma (Cmax) and an area under the plasma concentration-time curve (AUC) were calculated from the change in the concentration in the obtained plasma. Here, values in the table are the mean value±standard deviation of three examples.

Series [2] can be described thus: Test Example 1. Solubility Test. As to conditions: thermodynamic from solid, shaken at 37° C. for 2 hours, mean of two measurements, read-out: Solubility of Compound A. It is filed as physicochemical. The method, then:
5 mL of a first fluid (pH1.2) or 5 mL of a […] for an elution test in Japanese Pharmacopoeia was added to the solid dispersions of Example 1 and Comparative Examples 1 to 8, and the sample of Comparative Example 9, the solid dispersions were ground using a glass rod or a spatula, and then shaken at 37° C. for 2 hours. 400 μL of a mixed solution (acetonitrile/water=3/2) was immediately added to 600 μL of the sample solution filtered off using a 0.45 μm filter, and a concentration of the compound A in the sample solution was measured by HPLC (Shimadzu Corporation). Here, values in the table are the mean values obtained by repeating measurements twice.

Converted amounts (≈) assume the structure as drawn. Where two headings read alike, the source gives them in different places.

As for `N#Cc1cc(-c2nc3c(O)ncnc3s2)ccc1Oc1ccccc1` [Comparative Example 11, 2-(3-cyano-4-phenoxyphenyl)-7-hydroxythiazolo[5,4-d]pyrimidine], the Tmax in series [1] came to 3.7 ± 3.8 h.
Turning to `N#Cc1cc(-c2nc3c(O)ncnc3s2)ccc1Oc1ccccc1` [Comparative Example 9, 2-(3-cyano-4-phenoxyphenyl)-7-hydroxythiazolo[5,4-d]pyrimidine], the solubility at 2 h in series [2] (pH 1.2, simulated gastric fluid, First fluid for dissolution test (pH1.2)) was 0.39 µg/mL (≈ 1.13 µM); in series [2] (pH 6.8, aqueous buffer, Second fluid for dissolution test (pH6.8)), 0.49 µg/mL (≈ 1.41 µM).

The term Tmax denotes the time at which the peak concentration occurs. A word on the solubility: it is how much of the substance goes into solution per volume.
